{"source": "patent US20240316129A1", "about": "“Bacteria and Herbal Extract Nutraceutical Blends for Lung Health Maintenance” (The UAB Research Foundation, priority 2021, published 2024)", "key": {"mice": {"test_system": "mice", "details": "normoxia and under noxious stimuli, P<0.05"}, "[1]": {"test_system": "newborn wild type C57BL/6 mice", "experiment": "Loss of function of Ac-PGP by RTR treatment in LPS-treated newborn mice", "type": "in vivo, mouse", "details": "under noxious stimuli, LPS+RTR compared to LPS alone, P<0.05", "source_text": "FIG. 9A illustrates that newborn wild type C57BL/6 mice were randomized to treatment with RTR, LPS, and RTR+LPS as well as normoxia and noxious stimuli."}, "C57BL/6 mouse pups": {"test_system": "C57BL/6 mouse pups", "experiment": "In vivo (mouse) dysbiosis model of chronic lung disease, LPS-treated pups"}, "RSB13": {"test_system": "RSB13", "experiment": "Culture growth of probiotic strain RSB13 with herbal extracts or Vitamin D", "type": "cell-based, Lactobacillus rhamnosus", "details": "number of colonies per plate"}, "RSB12": {"test_system": "RSB12", "experiment": "Culture growth of probiotic strain RSB12 with herbal extracts or Vitamin D", "type": "cell-based, Lactobacillus acidophilus", "details": "number of colonies per plate"}, "RSB11": {"test_system": "RSB11", "experiment": "Culture growth of probiotic strain RSB11 with herbal extracts or Vitamin D", "type": "cell-based, Lactobacillus plantarum", "details": "number of colonies per plate"}, "[2]": {"details": "LPS-treated mice compared to controls, P<0.05"}}}
{"substance": "N-acetyl-Proline-Glycine-Proline [Ac-PGP]", "values": [{"measurement": "MPO concentration", "setting": "mice; ELISA", "value": "increased"}, {"measurement": "NE concentrations in BALF", "setting": "mice", "value": "increased"}, {"measurement": "RAC counts", "setting": "mice", "value": "decreased"}, {"measurement": "right ventricular hypertrophy (RVH)", "setting": "mice", "value": "increased"}]}
{"substance": "arginine-threonine-arginine [RTR]", "values": [{"measurement": "MPO concentrations", "setting": "[1]", "value": "significantly lower"}, {"measurement": "RAC", "setting": "[1]", "value": "significantly higher"}, {"measurement": "RVH", "setting": "[1]", "value": "significantly less severe"}]}
{"substance": "lipopolysaccharide [LPS]", "values": [{"measurement": "lung tissue histology", "setting": "C57BL/6 mouse pups; LPS-treated C57BL/6 mouse pups", "value": "alveolar hypoplasia and simplification"}, {"measurement": "myeloperoxidase (MPO) levels in BALF", "setting": "C57BL/6 mouse pups; [2]", "value": "significantly increased"}, {"measurement": "neutrophil elastase (NE) levels in BALF", "setting": "C57BL/6 mouse pups; [2]", "value": "significantly increased"}, {"measurement": "radial alveolar counts (RAC)", "setting": "C57BL/6 mouse pups; [2]", "value": "significantly decreased"}, {"measurement": "Ac-PGP levels in BALF", "setting": "C57BL/6 mouse pups; LPS-treated mice compared to controls, by HPLC, P<0.05", "value": "significantly increased"}]}
{"substance": "Vitamin D", "values": [{"measurement": "culture growth of RSB13", "setting": "RSB13", "value": "do not have an inhibitory effect"}, {"measurement": "culture growth of RSB12", "setting": "RSB12", "value": "do not have an inhibitory effect"}, {"measurement": "culture growth of RSB11", "setting": "RSB11", "value": "do not have an inhibitory effect"}]}
